Results published in patent US20260130896A1, “COMPOSITIONS AND METHODS FOR DELIVERY OF OPHTHALMOLOGICAL ACTIVES” (ADS Therapeutics LLC, priority 2023, published 2026).

Legend:
Type in all cases: physicochemical
[1] = Solubility of Acoltremon (AR-15512) in exemplary formulations
Text: (§1) Time (min) % Mobile Phase A % Mobile Phase B

[2] = Solubility of aceclidine in exemplary formulations; conditions: for Aceclidine solubility: Unsaturated
Experimental: An appropriate amount of aceclidine was dissolved in various MCT (to obtain a mixed solution), then SFA (F6H8 or F4H5) was added to the solution in the indicated proportions and the solution was mixed well with magnetic stirring.

[3] = Solubility of aceclidine in F6H8, MCT and 10% MCT in F6H8 by GC; conditions: GC method
Experimental: 5 mg aceclidine was added into a PP tube, 1 ml of F6H8 was added, the PP tube was shaken for about 5 minutes and aceclidine was completely dissolved in the solution. Further 18 mg aceclidine was added, and shaking was continued until no insoluble substance was found. […] The phenomenon disappeared after re-shaking.
The above formulations were centrifuged and the supernatants filtered through 0.45 micron filters without further dilution. One sample was prepared from each solvent for GC analysis.
The GC protocols and parameters are listed below:
Injection Volume: 0.5 ul (Direct injection)
Detector Temp (FID): 300° C.
Gradient: 70° C. (hold 2 min)→12° C./min→280° C. (hold 7 min)
20 mg aceclidine was added into a PP tube, and 1 ml MCT was added. The PP tube was shaken for about 5 minutes and the resulting solution became clear. Further 40 mg of aceclidine was added. The PP tube was shaken again. […] The phenomenon disappeared after re-shaking. A small sample was taken and solubility was determined according to the GC method described in Example 17.
Sample preparation was prepared and analyzed based on the protocols described in Examples 17 and 18.

[4] = Stability of aceclidine in F6H8; conditions: dissolved in F6H8, 25° C., 1, 3, 6, 9 and 12 months
Experimental: Aceclidine is dissolved in F6H8 as described in Example 17. The level of aceclidine is measured by the GC method at 25° C. at 1, 3, 6, 9 and 12 months. The aceclidine in the formulation is defined as stable if the level is maintained between 90-110% of the original level.

[5] = Solubility of axitinib in exemplary formulations
Experimental: Mobile phase A: 0.05% TFA-H2O
Mobile phase B: 0.05% TFA-Acetonitrile
Flow rate: 1.0 mL/min Wavelength: 362 nm
Injection volume: 30 μL Column temperature: 40° C.

[6] = Solubility of lotilaner in exemplary formulations
Text: as §1

[7] = Solubility of ivermectin (CBT-273) in exemplary formulations
Experimental: The obtained mixture was filtered through 0.22 μm filter and the filtrated solution was analyzed by GC.
Shim-pack GIST C18 5 μm, 4.6 (ID) mm×250 mm (L), 5 μm Mobile phase: Acetonitrile: Methanol: Water=55:35:10 (v:v:v) Flow rate: 1.0 mL/min Wavelength: 214 nm Injection volume: 10 μL Column temperature: 45° C.

[8] = Solubility of lifitegrast in exemplary formulations
Experimental: Chromatographic column: Agilent ZORBAX SB-C18, 4.6*250 mm, 5 μm Mobile phase A: 0.1% Phosphoric Acid-H2O Mobile phase B: Acetonitrile Flow rate: 1.0 mL/min Wavelength: UV/220 nm Injection volume: 10 μL Column temperature: 35° C.
Since the auxiliary peaks of MCM and MC8-2 overlapped with the main peaks in the above gradient method, the analytical methods for MCM and MC8-2 were adjusted as follows: Chromatographic column: Agilent ZORBAX SB-C18, 4.6*250 mm, 5 μm Mobile phase A: 0.1% Phosphoric Acid-H2O Mobile phase B: Acetonitrile Flow rate: 1.0 mL/min Wavelength: UV/220 nm Injection volume: 10 μL Column temperature: 35° C.

Compound: COc1ccc(NC(=O)[C@@H]2C[C@H](C)CC[C@H]2C(C)C)cc1 [Acoltremon (AR-15512), (1R,2S,5R)—N-(4-methoxyphenyl)-5-methyl-2-(1-methylethyl) cyclohexanecarboxamide]
- Acoltremon (AR-15512) Saturated solubility ([1]; 10% Captex 170/90% F4H5, RT): 0.21 mg/g
- Acoltremon (AR-15512) Saturated solubility ([1]; 10% Captex 200P / 90% F4H5, RT): 0.36 mg/g
- Acoltremon (AR-15512) Saturated solubility ([1]; 10% Captex 200P/90% F6H8, RT): 0.36 mg/g
- Acoltremon (AR-15512) Saturated solubility ([1]; 10% Captex 355/90% F6H8, RT): 0.7 mg/g
- Acoltremon (AR-15512) Saturated solubility ([1]; 10% MCT/90% F4H5, RT): 0.28 mg/g
- Acoltremon (AR-15512) Saturated solubility ([1]; 10% MCT/90% F6H8, RT): 0.29 mg/g
- Acoltremon (AR-15512) Saturated solubility ([1]; 20% Captex 170/80% F4H5, RT): 0.42 mg/g
- Acoltremon (AR-15512) Saturated solubility ([1]; 20% Captex 170/80% F6H8, RT): 0.43 mg/g
- Acoltremon (AR-15512) Saturated solubility ([1]; 20% Captex 200P / 80% F4H5, RT): 0.66 mg/g
- Acoltremon (AR-15512) Saturated solubility ([1]; 20% Captex 200P / 80% F6H8, RT): 0.53 mg/g
- Acoltremon (AR-15512) Saturated solubility ([1]; 20% MCT/80% F4H5, RT): 0.55 mg/g
- Acoltremon (AR-15512) Saturated solubility ([1]; 20% MCT/80% F6H8, RT): 0.55 mg/g
- Acoltremon (AR-15512) Saturated solubility ([1]; 100% Captex 170, RT): 2.03 mg/g
- Acoltremon (AR-15512) Saturated solubility ([1]; 100% Captex 200P, RT): 3.21 mg/g
- Acoltremon (AR-15512) Saturated solubility ([1]; 100% Captex 8000, RT): 1.84 mg/g
- Acoltremon (AR-15512) Saturated solubility ([1]; 100% F4H5, RT): 0.064 mg/g
- Acoltremon (AR-15512) Saturated solubility ([1]; 100% F6H8, RT): 0.055 mg/g
- Acoltremon (AR-15512) Saturated solubility ([1]; 100% MCT, RT): 3.12 mg/g

Compound: CC(=O)OC1CN2CCC1CC2 (stereo not shown) [Aceclidine, aceclidine]
- aceclidine concentration that is stable and uniform ([2]; 10% Captex 355/F6H8, RT): 1.5%-2% is stable
- Aceclidine solubility ([2]; 10% Captex 355/F6H8, RT): > 21.4(Unsaturated), mg/g
- aceclidine concentration that is stable and uniform ([2]; 10% Captex 8000/F6H8, RT): 2% is stable and
- Aceclidine solubility ([2]; 10% Captex 8000/F6H8, RT): > 17.0(Unsaturated), mg/g
- Aceclidine solubility ([2]; 10% MCT/90% F6H8, RT): > 17.0(Unsaturated) mg/g
- Aceclidine solubility ([2]; 100% Captex 300, RT): > 66.7(Unsaturated) mg/g
- Aceclidine solubility ([2]; 100% Captex 355, RT): > 203.4(Unsaturated) mg/g
- Aceclidine solubility ([2]; 100% Captex 8000, RT): > 164.0(Unsaturated) mg/g
- Aceclidine solubility ([2]; 100% MCT, RT): > 320.9(Unsaturated) mg/g
- solubility of aceclidine in 10% MCT in F6H8 [3]: around 2 % (w/v)
- solubility of aceclidine in F6H8 [3]: around 1.5 % (w/v)
- solubility of aceclidine in MCT [3]: around 5 % (w/v)
- stability (level maintained between 90-110% of the original level) [4]: remains stable

Compound: CNC(=O)c1ccccc1Sc1ccc2c(/C=C/c3ccccn3)n[nH]c2c1 [Axitinib]
- Axitinib Saturated solubility ([5]; 100% Captex 300, RT): 0.022 mg/g
- Axitinib Saturated solubility ([5]; 100% Captex 355, RT): 0.03 mg/g
- Axitinib Saturated solubility ([5]; 100% Captex 8000, RT): 0.1 mg/g

Compound: Cc1cc(C2=NO[C@@](c3cc(Cl)c(Cl)c(Cl)c3)(C(F)(F)F)C2)sc1C(=O)NCC(=O)NCC(F)(F)F [Lotilaner, lotilaner]
- Lotilaner solubility ([6]; 10% Captex 300/90% F6H8, RT): 1.21 mg/g
- Lotilaner solubility ([6]; 10% Captex 8000/90% F6H8, RT): 3.47 mg/g
- Lotilaner solubility ([6]; 10% MCT/90% F6H8, RT): 2.7 mg/g
- Lotilaner solubility ([6]; 20% MCT/80% F6H8, RT): 5.42 mg/g
- Lotilaner solubility ([6]; 100% Captex 300 (Unsaturated), RT): > 11.32 mg/g
- Lotilaner solubility ([6]; 100% Captex 8000 (Unsaturated), RT): > 29.04 mg/g
- Lotilaner solubility ([6]; 100% MCT (Unsaturated), RT): > 25.47 mg/g

Compound: ivermectin [Ivermectin (CBT-273)]
- Ivermectin (CBT-273) Saturated solubility ([7]; 10% Captex 300/90% F6H8, RT): 1.35 mg/g
- Ivermectin (CBT-273) Saturated solubility ([7]; 10% Captex 355/90% F4H5, RT): 0.61 mg/g
- Ivermectin (CBT-273) Saturated solubility ([7]; 10% Captex 355/90% F6H8, RT): 0.46 mg/g
- Ivermectin (CBT-273) Saturated solubility ([7]; 10% Captex 8000/90% F6H8, RT): 1.36 mg/g
- Ivermectin (CBT-273) Saturated solubility ([7]; 20% Captex 355/80% F4H5, RT): 3.03 mg/g
- Ivermectin (CBT-273) Saturated solubility ([7]; 20% Captex 355/80% F6H8, RT): 3.87 mg/g
- Ivermectin (CBT-273) Saturated solubility ([7]; 100% Captex 355, RT): 26.51 mg/g
- Ivermectin (CBT-273) Saturated solubility ([7]; 100% Captex 8000, RT): 34.62 mg/g
- Ivermectin (CBT-273) Saturated solubility ([7]; 100% Captex ® 300, RT): 27.91 mg/g
- Ivermectin (CBT-273) Saturated solubility ([7]; 100% F4H5, RT): 0.12 mg/g
- Ivermectin (CBT-273) Saturated solubility ([7]; 100% F6H8, RT): 0.04 mg/g

Compound: CS(=O)(=O)c1cccc(C[C@H](NC(=O)c2c(Cl)cc3c(c2Cl)CCN(C(=O)c2ccc4ccoc4c2)C3)C(=O)O)c1 [Lifitegrast, lifitegrast]
- Lifitegrast Saturated solubility ([8]; 10% MCT/90% F6H8, RT): 0 mg/g
- Lifitegrast Saturated solubility ([8]; 20% MCT/80% F6H8, RT): 0 mg/g
- Lifitegrast Saturated solubility ([8]; 50% MCT/50% F6H8, RT): 0.004 mg/g
- Lifitegrast Saturated solubility ([8]; 100% Captex 300, RT): 0.28 mg/g
- Lifitegrast Saturated solubility ([8]; 100% Captex 355, RT): 0.27 mg/g
- Lifitegrast Saturated solubility ([8]; 100% Captex 8000, RT): 0.56 mg/g
